Experimental data as given in patent publication US20110166066A1, “CATESTATIN (CST) AND ITS VARIANTS FOR TREATMENT OF CARDIOVASCULAR AND METABOLIC DISORDERS” (priority 2008, published 2011).
No end group written: not given here.

Columns and labels:
[1] = tested on: Langendorff perfused rat heart; assay: WT-CST inotropism/lusitropism in presence of adrenergic, cholinergic, Gi/o and NO-pathway inhibitors (Langendorff heart); settings: for Negative inotropism with muscarinic receptor antagonist: WT-CST 110 nM + Atropine 10 nM; for Negative inotropism with β-adrenoceptor antagonist: WT-CST 110 nM + Nadolol 10 nM; for Negative inotropism with α-adrenoceptor antagonist: WT-CST 110 nM + Phentolamine 100 nM; for Negative inotropism with Gi/o protein inhibition: WT-CST 110 nM after PTx 0.01 nM; for LVP change: preliminary experiments
Experimental: Adrenergic and cholinergic receptors involvement—To obtain information on the involvement of β1/β2, α-adrenergic receptors (ARs) and cholinergic receptors (AchR) on the inotropic and lusitropic effects induced by WT-Cts, cardiac preparations, stabilized for 20 min with KHs, were perfused with Nadolol (10 nM) or Phentolamine (100 nM) or Atropine (10 nM) for 10 min and then washed-out with KHs. After returning to control conditions, each heart was perfused with KHs containing a single concentration of Cts WT (110 nM) plus Nadolol (10 nM) or Phentolamine (100 nM) or Atropine (10 nM) for an additional 10 min.
Involvement of inhibitory G-protein (Gi/o)—To evaluate the involvement of inhibitory G-proteins in the cardiac action of WT-Cts, hearts were preincubated for 60 min with KHs enriched with pertussis toxin (PTx: 0.01 nM) and then exposed for 10 min to WT-Cts (110 nM). PTx catalyzes ADP-ribosylation of Gi/o alpha-subunit, uncoupling Gi-membrane receptor interaction.
NO-pathway inhibitor stimulated preparations—Hearts were stabilized for 20 min with KHs, perfused with 110 nM WT-Cts for 10 min and then the peptide was washed-out with KHs. After returning to control conditions, each heart was perfused with KHs containing either the NO scavenger PTIO, the non-specific NOS inhibitor L-NMMA, a soluble guanylate cyclase inhibitor (ODQ) or a protein kinase G blocker (KT5823). Subsequently, the hearts were exposed to the specific signaling inhibitor plus 110 nM of WT-Cts.

[2] = tested on: Langendorff perfused rat heart; assay: ET-1 stimulated Langendorff heart preparations
Experimental: ET-1 stimulated preparations—Hearts, stabilized for 20 min with KHs, were perfused for 10 min with ET-1 (1 nM) and then washed-out with KHs. After returning to control conditions, each heart was perfused with KHs containing a single concentration of either WT-Cts (33 nM), P370L-Cts (110 nM) or G364S-Cts (200 nM) plus 1 nM ET-1 for a further 10 min.

[3] = tested on: C57BL/6 wild-type mice; assay: Mouse hind-limb ischemia model; type: in vivo; settings: for Blood perfusion (LDPI), in words: 3 and 4 weeks after operation
Experimental: Mouse hind-limb ischemia model. Male C57BL/6 wild-type mice at the age of 12 months were subjected to unilateral hind-limb surgery. Briefly, the left femoral artery was exposed, ligated with 5-0 silk ligatures, and excised. Mice were injected with saline or 10 μg catestatin into thigh and calf muscles after operation and every other day for weeks 1 and 2 and 2 times per week for weeks 3 and 4. All further measurements and analyses were performed by investigators blinded to the treatment of the animals.
Blood flow measurement. Blood flow measurements were performed using a laser Doppler perfusion image (LDPI) analyzer (Moor Instruments, USA) as described. To minimize data variables attributable to ambient light and temperature animals were kept on a heating plate at 37° C. before measurement and blood perfusion is expressed as the LDPI index representing the ratio of left (=operated, ischemic leg) versus right (=not-operated, not-ischemic leg) limb blood flow. A ratio of 1 before operation indicates equal blood perfusion of both legs, whereas after femoral artery excision this ratio drops to 0.26, indicating severe attenuation of leg blood supply in the operated leg.
Alkaline phosphatase staining and Immunohistochemistry. For tissue staining, mice were sacrificed and ischemic limb tissues were retrieved after 4 weeks. Specimens were fixed in 10% (v/v) buffered formaldehyde, dehydrated with graded ethanol series and embedded in paraffin. Alternatively, fresh tissue was embedded in OCT compound (TISSUE-TEK®, Sakura Finetek) and snap-frozen in liquid nitrogen. Tissues were sliced into 5-μm sections. Vascular endothelial cells were identified by alkaline phosphatase staining and for assessment of artery/arteriole density sections were stained with a mouse monoclonal alpha-smooth muscle actin antibody (Pharmingen) as described (36). Adductor muscle samples of each leg were divided into 2 parts and capillaries (alkaline phosphatase positive) and arteries (alpha-smooth muscle actin positive) were counted in five sections of each part and are expressed as capillary and arteriole density per mm^2.

[4] = tested on: WT, CgA-KO and HFD fed insulin resistant mice; assay: Blood glucose / glucose tolerance tests; type: in vivo
Text: (§1) Adult WT (C57BL/6) and CgA-KO mice with mixed genetic background (129svJ×C57BL/6) were used in this study. Both WT and KO mice were generated from the original founder carrying mixed genotype (50% 129svJ: 50% C57BL/6) and were maintained by brother/sister mating. Hypertensive CGA-KO mice will serve as a model for hyper insulin sensitivity. WT mice were fed 60% high fat diet (HFD) for 20 weeks. Body weight and blood glucose levels were monitored and glucose and insulin tolerance testa were performed to determine status of insulin resistance. After 20 weeks of HFD feeding mice were injected IP with catestatin (40 μg/gm body weight) twice daily for 7 days. On the 8th day, 12 hours fasted mice were subjected to glucose tolerance tests to determine their insulin sensitivity. Tissues of WT and CgA-KO mice are analyzed AMPK and eNOS signalling by immunoblotting.

[5] = tested on: pAMPK; assay: AMPK signalling by immunoblotting of mouse tissues; type: in vivo; settings: CgA-KO mice
Text: as §1

[6] = tested on: eNOS; assay: eNOS signalling by immunoblotting of mouse tissues; type: in vivo; settings: CgA-KO mice
Text: as §1

[7] = tested on: CgA null mice; settings: pre-treatment; cited from earlier work

## SSMKLSFRARAYGFRGPGPQL [WT-CST, catestatin]
[1]
  Negative inotropism with muscarinic receptor antagonist: remained unaffected
  Negative inotropism with β-adrenoceptor antagonist: abolished
  Negative inotropism with α-adrenoceptor antagonist: reduced
  Negative inotropism with Gi/o protein inhibition: abolished
[1]; listed as WT-Cts
  Negative inotropism with muscarinic receptor antagonist: Unchanged
  Negative inotropism with β-adrenoceptor antagonist: Abolished
  Negative inotropism with α-adrenoceptor antagonist: Reduced
  Negative inotropism with Gi/o protein inhibition: Abolished
[1]; WT-CST 110 nM + KT5823 0.1 μM
  CST-induced changes in cardiac performance with PKG inhibition by KT5823: failed to affect
[1]; WT-CST 110 nM + L-NMMA 10 μM
  Negative inotropism and lusitropism with NOS inhibition by L-NMMA: abolished
[1]; WT-CST 110 nM + ODQ 10 μM
  Negative inotropism and lusitropism with sGC blockade by ODQ: abolished
[1]; WT-CST 110 nM + PTIO 10 μM
  Negative inotropism and lusitropism with NO removal by PTIO: abolished
[1]; WT-CST 110 nM, Table 1
  Negative inotropism with eNOS-NO-cGMP-PKG pathway inhibition: Abolished
[1]; WT-Cts + L-NIO (eNOS selective inhibitor)
  LVP change: 5.04±1.69
[1]; WT-Cts + Vinyl-L-NIO (nNOS selective inhibitor)
  LVP change: −13.14±2.25
[1]; WT-Cts alone
  LVP change: −18.19±2.27
[2]; ET-1 1 nM, WT-CST 33 nM, P370L-CST 110 nM, G364S-CST 200 nM
  ET-1 induced positive inotropism: blocked
[2]; higher doses (10 nM)
  Effect on LVP and +(LVdP/dT)max: decreased
[3]; listed as CST
  Blood perfusion (LDPI), in words: improved perfusion
[3]; listed as catestatin
  Blood perfusion (LDPI), in words: improved blood perfusion
[3]; 4 weeks
  Capillary density, in words: significantly increased capillary density
  Density of arteries/arterioles, in words: increases density of arteries/arterioles
[3]; 4 weeks after surgery
  Alpha-smooth muscle actin positive vessels: 7.5±0.5 vessels/mm^2
  Capillaries (alkaline phosphatase positive vessels): 356±17 capillaries/mm^2
[3]; 4 wks after induction of ischemia, 10 μg i.m.
  LDPI ratio: 0.94±0.03
[3]; after 3 weeks
  Perfusion ratios versus saline: significantly better
[4]; HFD fed insulin resistant mice, 40 μg/gm IP twice daily 7 days
  Peak blood glucose level: reduced
[4]; WT and CgA-KO mice
  Blood glucose level: raised
[4]; insulin-resistant HFD mice
  Reduction of blood glucose level (glucose tolerance tests): 15-20%
[5]
  pAMPK signal: reduced
[6]
  eNOS signal: reduced
[7]
  High blood pressure in CgA null mice: lowers the high blood pressure in CgA null mice to normal levels
